Reference: ChEMBL document CHEMBL5726394, “Therapeutic compounds and compositions” (2019)

Molecular target: Isocitrate dehydrogenase [NADP], mitochondrial (Homo sapiens, UniProt P48735, R140Q)
Assay: IDH2 Enzymatic Assay: Compounds were assayed for IDH2 R140Q inhibitory activity through a cofactor depletion assay. […] The reaction was terminated by the addition of a second enzyme, diaphorase, and a corresponding substrate, resazurin. Diaphorase reduces resazurin to the highly fluorescent resorufin with the concomitant oxidation of NADPH to NADP, both halting the IDH2 reaction by depleting the available cofactor pool and facilitating quantitation of the amount of cofactor remaining after a specific time period through quantitative production of an easily detected fluorophore.Specifically, into each of 12 wells of a 384-well plate, 1 μl of compound dilution series was placed, followed by the addition of 40 μl of buffer (50 mM potassium phosphate, pH 7.5; 150 mM NaCl; 10 mM MgCl2, 10% glycerol, 0.05% bovine serum albumin, 2 mM beta-mercaptoethanol) containing 1.25 μg/ml IDH2 R140Q. The compound was then incubated for one hour at room temperature with the enzyme; before starting the IDH2 reaction with the addition of 10 μl of substrate mix containing 50 μM NADPH and 6.3 mM α-KG in the buffer described above. After a further one hour of incubation at room temperature, the reaction was halted and the remaining NADPH measured through conversion of resazurin to resorufin by the addition of 25 μl Stop Mix (36 μg/ml diaphorase enzyme and 60 μM resazurin; in buffer). […]

Chain of Isocitrate dehydrogenase [NADP], mitochondrial (P48735 40-452 R140Q limits assumed): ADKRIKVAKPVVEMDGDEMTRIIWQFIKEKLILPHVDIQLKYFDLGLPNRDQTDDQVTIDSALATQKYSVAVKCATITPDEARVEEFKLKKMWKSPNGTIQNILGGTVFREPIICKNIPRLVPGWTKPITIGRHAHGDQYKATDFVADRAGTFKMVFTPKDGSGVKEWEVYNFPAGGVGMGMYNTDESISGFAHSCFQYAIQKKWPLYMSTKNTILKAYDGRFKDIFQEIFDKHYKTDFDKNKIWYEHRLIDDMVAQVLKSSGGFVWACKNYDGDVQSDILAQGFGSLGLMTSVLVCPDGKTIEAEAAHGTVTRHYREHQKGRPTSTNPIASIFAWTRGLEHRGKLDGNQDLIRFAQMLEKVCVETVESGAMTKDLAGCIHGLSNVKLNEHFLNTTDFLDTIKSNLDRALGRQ

Compound	IC50 [nM]
CCSc1ccc(S(=O)(=O)NCC(F)(F)F)cc1NC(=O)Nc1cccc(C(F)(F)F)c1	< 100
O=C(Nc1cccc(C(F)(F)F)c1)Nc1cc(S(=O)(=O)Nc2ccccc2)ccc1-c1cccs1	100 to 1000
